# Target: R132H mutant IDH1 enzyme (Homo sapiens (Human), UniProt O75874, R132H)
# Assay: R132H IDH1 Enzymatic Assay
# Format: biochemical
# Conditions: 1.5 nM final, 30 min preincubation, 60 min reaction, Kinase-GLO luminescence
# R132H mutant IDH1 enzyme, sequence (O75874 whole entry R132H): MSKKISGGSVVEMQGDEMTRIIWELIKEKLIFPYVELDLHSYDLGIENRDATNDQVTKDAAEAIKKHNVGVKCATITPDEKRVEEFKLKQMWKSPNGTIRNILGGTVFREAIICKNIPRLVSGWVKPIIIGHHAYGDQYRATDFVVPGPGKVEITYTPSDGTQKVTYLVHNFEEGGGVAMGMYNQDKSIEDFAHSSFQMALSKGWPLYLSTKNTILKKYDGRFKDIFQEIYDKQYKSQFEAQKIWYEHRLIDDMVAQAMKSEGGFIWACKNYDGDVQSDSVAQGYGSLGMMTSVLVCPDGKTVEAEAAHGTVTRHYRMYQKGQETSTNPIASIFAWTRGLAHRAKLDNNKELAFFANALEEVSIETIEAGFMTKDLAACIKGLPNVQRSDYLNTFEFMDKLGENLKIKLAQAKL
row,SMILES,IC50 [nM]
1,"COc1ccc2c(c1)N(C(=O)C1CCN(CC(F)(F)F)CC1)C(C)c1cccnc1N2 (centres unmarked) [Example 67, (8-Methoxy-5-methyl-5,11-dihydro-6H-benzo[b]pyrido[2,3-e][1,4]diazepin-6-yl)(1-(2,2,2-trifluoroethyl)piperidin-4-yl)methanone]",215
2,"COc1ccc2c(c1)N(C(=O)[C@H]1CC[C@H](OC(C)C)CC1)C(C)c1cccnc1N2 (stereo partly drawn) [Example 68, (Trans-4-isopropoxycyclohexyl)(8-methoxy-5-methyl-5,11-dihydro-6H-benzo[b]pyrido[2,3-e][1,4]diazepin-6-yl)methanone]",112
3,"Cc1cnc2c(c1)CN(C(=O)[C@H]1CC[C@H](OC(C)C)CC1)c1cc(N3C[C@@H]4CC[C@H]3CO4)ccc1N2 [Example 69, (8-((1S,4S)-2-Oxa-5-azabicyclo[2.2.2]octan-5-yl)-3-methyl-5,11-dihydro-6H-benzo[b]pyrido[2,3-e][1,4]diazepin-6-yl)(trans-4-isopropoxycyclohexyl)methanone]",103
4,"CC(C)O[C@H]1CC[C@H](C(=O)N2Cc3cc(S(C)(=O)=O)cnc3Nc3ccc(N4C[C@@H]5CC[C@H]4CO5)cc32)CC1 [Example 70, (8-((1S,4S)-2-oxa-5-azabicyclo[2.2.2]octan-5-yl)-3-(methylsulfonyl)-5,11-dihydro-6H-benzo[b]pyrido[2,3-e][1,4]diazepin-6-yl)(trans-4-isopropoxycyclohexyl)methanone]",5750

# Other lines, results leading:
row,IC50 [nM],SMILES
1,30,"CC(C)O[C@H]1CC[C@H](C(=O)N2Cc3cc(Cl)cnc3Nc3ccc(N4C[C@@H]5CC[C@H]4CO5)cc32)CC1 [Example 71, (8-((1S,4S)-2-Oxa-5-azabicyclo[2.2.2]octan-5-yl)-3-chloro-5,11-dihydro-6H-benzo[b]pyrido[2,3-e][1,4]diazepin-6-yl)(trans-4-isopropoxycyclohexyl)methanone]"
2,160,"O=C(C1CCN(CC(F)(F)F)CC1)N1Cc2cc(F)cnc2Nc2cc(F)ccc21 [Example 72, (3,9-Difluoro-5,11-dihydro-6H-benzo[b]pyrido[2,3-e][1,4]diazepin-6-yl)(1-(2,2,2-trifluoroethyl)piperidin-4-yl)methanone]"
3,10,"O=C(C1CCN(CC(F)(F)F)CC1)N1Cc2cc(F)cnc2Nc2cc(F)c(N3CC4CCC3CO4)cc21 (centres unmarked) [Example 73, (8-(2-oxa-5-azabicyclo[2.2.2]octan-5-yl)-3,9-difluoro-5H-benzo[b]pyrido[2,3-e][1,4]diazepin-6(11H)-yl)(1-(2,2,2-trifluoroethyl)piperidin-4-yl)methanone]"
4,174,"O=C(C1CCN(CC(F)(F)F)CC1)N1Cc2cccnc2Nc2cc(F)ccc21 [Example 74, (9-Fluoro-5,11-dihydro-6H-benzo[b]pyrido[2,3-e][1,4]diazepin-6-yl)(1-(2,2,2-trifluoroethyl)piperidin-4-yl)methanone]"

# Source: patent US10399972B2, “Tricyclic compounds as inhibitors of mutant IDH enzymes” (Merck Sharp & Dohme Corp., priority 2015, dated 2019)
